pIC50, pKi: −log10 of the molar value.
How the values were obtained:
Assay type in all cases: biochemical
hMeprin α = molecular target: T1, hMeprin α (Homo sapiens, UniProt Q16819); test: Enzymatic assay, quenched peptide substrate cleavage, method B; conditions: geometric mean (geometric SD factor in parentheses); for pKi: Morrison's equation, read-out: Meprin alpha Ki(app); for pIC50: read-out: Meprin alpha IC50
T1 sequence (Q16819 66-746): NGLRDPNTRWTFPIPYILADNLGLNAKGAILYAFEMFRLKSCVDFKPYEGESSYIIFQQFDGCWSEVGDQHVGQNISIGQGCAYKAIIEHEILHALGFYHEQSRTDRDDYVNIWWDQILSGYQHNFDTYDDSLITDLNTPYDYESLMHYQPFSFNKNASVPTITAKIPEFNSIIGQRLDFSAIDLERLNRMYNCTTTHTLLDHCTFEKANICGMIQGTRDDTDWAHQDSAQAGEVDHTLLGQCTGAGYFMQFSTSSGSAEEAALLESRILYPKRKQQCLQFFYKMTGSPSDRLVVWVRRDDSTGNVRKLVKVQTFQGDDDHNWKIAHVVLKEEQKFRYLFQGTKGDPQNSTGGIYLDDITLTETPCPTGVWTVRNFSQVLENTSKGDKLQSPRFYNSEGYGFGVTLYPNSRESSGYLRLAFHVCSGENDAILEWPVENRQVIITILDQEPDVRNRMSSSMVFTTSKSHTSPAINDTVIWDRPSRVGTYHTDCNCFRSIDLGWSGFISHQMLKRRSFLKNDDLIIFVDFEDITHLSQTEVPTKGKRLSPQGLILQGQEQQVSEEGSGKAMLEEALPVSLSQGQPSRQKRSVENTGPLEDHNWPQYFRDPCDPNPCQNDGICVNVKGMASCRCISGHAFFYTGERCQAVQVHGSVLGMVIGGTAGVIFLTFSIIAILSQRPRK
Procedure, shortened: (§1)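 Cleavage of internally quenched peptides was read at 340/420 nm and 30° C., with enzyme at 5e-8 to 2e-10 M and substrate at 0.15–80 μM. Inhibitor solutions contained 1% DMSO and substrate 0.5% DMSO. Method B gave Ki(app) values via Morrison's equation, with kinetics measured in at least duplicate on separate days.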

hMeprin β = molecular target: T2, hMeprin β (Homo sapiens, UniProt Q16820); test: as above; conditions: geometric mean (geometric SD factor in parentheses); for pKi: Morrison's equation, read-out: Meprin beta Ki(app); for pIC50: read-out: Meprin beta IC50
T2 sequence (Q16820 62-701): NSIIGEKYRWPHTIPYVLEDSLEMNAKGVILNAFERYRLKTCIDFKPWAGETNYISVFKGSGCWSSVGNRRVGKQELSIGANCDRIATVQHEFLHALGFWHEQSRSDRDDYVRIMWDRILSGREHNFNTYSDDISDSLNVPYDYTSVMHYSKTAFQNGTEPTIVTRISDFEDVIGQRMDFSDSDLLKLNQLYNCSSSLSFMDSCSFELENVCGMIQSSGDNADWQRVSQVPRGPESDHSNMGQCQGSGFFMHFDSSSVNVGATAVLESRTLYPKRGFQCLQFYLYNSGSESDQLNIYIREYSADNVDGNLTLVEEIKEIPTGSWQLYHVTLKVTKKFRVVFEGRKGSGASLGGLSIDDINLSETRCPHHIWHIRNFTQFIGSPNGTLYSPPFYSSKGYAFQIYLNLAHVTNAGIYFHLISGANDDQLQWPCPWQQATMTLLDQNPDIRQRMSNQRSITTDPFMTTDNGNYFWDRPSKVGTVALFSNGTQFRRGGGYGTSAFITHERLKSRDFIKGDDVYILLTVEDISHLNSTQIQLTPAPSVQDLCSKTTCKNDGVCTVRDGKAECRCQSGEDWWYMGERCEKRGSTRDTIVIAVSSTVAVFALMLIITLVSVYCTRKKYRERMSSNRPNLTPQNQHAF
Procedure, shortened: as §1

hMMP 9 = molecular target: T3, hMMP 9 (Homo sapiens, UniProt P14780); test: Residual enzyme activity of other metalloproteases; conditions: read-out: Residual enzyme activity MMP9; for remaining activity at 10 µM: 10 μM inhibitor; for remaining activity at 200 µM: 200 μM inhibitor
T3 construct: purchased R&D systems
Protocol: (§2) The determination of enzymatic activity was based on the cleavage of internally quenched peptide substrates. A typical assay of 250 μl total volume measured in black 96 well plates consisted of 100 μl buffer, 50 μl enzyme at a final concentration of 5e-8 M to 2e-10 M, 50 μl substrate (0.15 to 80 μM, in buffer, 0.5% DMSO) and 50 μl inhibitor solution (in buffer, 1% DMSO). In case of 125 μl assay volume (black 96 half area well plates) all volumes were cut in half. Enzymatic activity of ADAMs was measured in 384 well plates with 60 μl total assay volume consisting of 20 μl inhibitor, 20 μl buffer, 10 μl enzyme and 10 μl substrate.
MMPs were activated prior to measurement by APMA (p-aminophenylmercuric acetate) treatment according to manufacturer's instructions (R&D systems).

hADAM 10 = molecular target: T4, hADAM 10 (Homo sapiens, UniProt O14672); test: Residual enzyme activity of other metalloproteases; conditions: read-out: Residual enzyme activity ADAM10; for remaining activity at 10 µM: 10 μM inhibitor; for remaining activity at 200 µM: 200 μM inhibitor
T4 construct: purchased R&D systems
T4 sequence (O14672 214-748): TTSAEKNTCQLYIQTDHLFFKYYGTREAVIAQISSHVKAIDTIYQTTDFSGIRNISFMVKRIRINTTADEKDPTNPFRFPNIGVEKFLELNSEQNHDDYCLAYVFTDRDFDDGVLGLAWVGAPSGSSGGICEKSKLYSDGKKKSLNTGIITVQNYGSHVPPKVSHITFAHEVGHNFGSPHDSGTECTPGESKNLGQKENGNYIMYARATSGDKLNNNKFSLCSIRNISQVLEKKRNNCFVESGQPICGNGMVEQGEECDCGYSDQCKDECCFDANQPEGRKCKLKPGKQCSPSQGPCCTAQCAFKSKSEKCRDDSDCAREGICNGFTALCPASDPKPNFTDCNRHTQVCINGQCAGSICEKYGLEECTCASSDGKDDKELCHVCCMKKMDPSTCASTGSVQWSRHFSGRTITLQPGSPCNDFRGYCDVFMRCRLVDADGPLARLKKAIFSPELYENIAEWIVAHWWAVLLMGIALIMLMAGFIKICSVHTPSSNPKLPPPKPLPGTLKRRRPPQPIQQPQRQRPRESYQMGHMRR
Protocol: as §2

hADAM 17 = molecular target: T5, hADAM 17 (Homo sapiens, UniProt P78536); test: Residual enzyme activity of other metalloproteases; conditions: read-out: Residual enzyme activity ADAM17; for remaining activity at 10 µM: 10 μM inhibitor; for remaining activity at 200 µM: 200 μM inhibitor
T5 construct: purchased R&D systems
Protocol: as §2

T5 sequence (P78536 215-824): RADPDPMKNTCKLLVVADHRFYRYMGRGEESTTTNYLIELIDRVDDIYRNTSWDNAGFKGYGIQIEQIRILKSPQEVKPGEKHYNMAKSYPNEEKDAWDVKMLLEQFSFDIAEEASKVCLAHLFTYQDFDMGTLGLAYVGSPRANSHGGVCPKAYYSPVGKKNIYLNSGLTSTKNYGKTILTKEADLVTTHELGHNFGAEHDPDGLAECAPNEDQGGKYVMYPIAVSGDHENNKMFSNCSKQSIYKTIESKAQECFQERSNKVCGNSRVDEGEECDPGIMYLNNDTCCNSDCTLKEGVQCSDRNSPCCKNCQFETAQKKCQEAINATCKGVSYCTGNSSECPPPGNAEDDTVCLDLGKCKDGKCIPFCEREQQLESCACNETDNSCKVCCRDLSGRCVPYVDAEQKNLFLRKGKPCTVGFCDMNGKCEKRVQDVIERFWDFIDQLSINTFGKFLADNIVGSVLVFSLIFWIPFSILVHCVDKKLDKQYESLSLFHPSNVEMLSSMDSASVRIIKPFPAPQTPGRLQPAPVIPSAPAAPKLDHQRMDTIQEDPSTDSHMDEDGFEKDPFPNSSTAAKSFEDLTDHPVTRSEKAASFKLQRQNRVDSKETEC
T3 sequence (P14780 107-707 limits assumed): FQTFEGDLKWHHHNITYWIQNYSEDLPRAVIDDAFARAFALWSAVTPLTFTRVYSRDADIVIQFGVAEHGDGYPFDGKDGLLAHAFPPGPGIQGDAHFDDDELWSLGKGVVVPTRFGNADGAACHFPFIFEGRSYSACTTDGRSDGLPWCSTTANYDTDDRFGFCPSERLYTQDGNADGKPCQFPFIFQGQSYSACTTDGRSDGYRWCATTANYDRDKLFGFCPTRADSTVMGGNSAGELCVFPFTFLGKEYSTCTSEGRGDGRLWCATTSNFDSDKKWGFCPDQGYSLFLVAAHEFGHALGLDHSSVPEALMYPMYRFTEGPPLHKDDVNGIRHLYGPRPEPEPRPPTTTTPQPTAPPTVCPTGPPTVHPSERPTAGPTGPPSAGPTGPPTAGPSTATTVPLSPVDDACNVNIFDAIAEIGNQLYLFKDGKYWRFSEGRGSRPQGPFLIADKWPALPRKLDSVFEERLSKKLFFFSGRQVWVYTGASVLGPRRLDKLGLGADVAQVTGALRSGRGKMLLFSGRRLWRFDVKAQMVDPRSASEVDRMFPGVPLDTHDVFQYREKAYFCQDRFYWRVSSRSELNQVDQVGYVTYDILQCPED

| Compound | pKi (hMeprin α) | pIC50 (hMeprin α) | pKi (hMeprin β) | pIC50 (hMeprin β) | remaining activity at 10 µM (hMMP 9) | remaining activity at 200 µM (hMMP 9) | remaining activity at 10 µM (hADAM 10) | remaining activity at 200 µM (hADAM 10) | remaining activity at 10 µM (hADAM 17) | remaining activity at 200 µM (hADAM 17) |
| --- | --- | --- | --- | --- | --- | --- | --- | --- | --- | --- |
| O=C(Cc1c(-c2ccccc2)nn(Cc2ccc(C(=O)O)cc2)c1-c1ccccc1)NO [Example 40, 4-[[4-(2-(Hydroxyamino)-2-oxo-ethyl]-3,5-diphenyl-1H-pyrazol-1-yl]methyl]benzoic acid] | 9.42 | 9.35 | 8.05 | 8.05 | 80% | 30% | 91% | 43% | 67% | 9% |
| O=C(Cc1c(-c2ccccc2)noc1-c1ccccc1)NO [Example 2, 2-(3,5-Diphenylisoxazol-4-yl)ethanehydroxamic acid] | 8.40 | 8.40 | 6.23 | 6.23 | 86% | 16% | 80% | 22% | 62% | 9% |
| O=C(Cn1c(-c2ccccc2)nc2ccccc21)NO [Example 13, 2-(2-Phenylbenzimidazol-1-yl)ethanehydroxamic acid] | 6.89 | 6.85 | 5.95 | 5.94 | 96% | 68% | 87% | 76% | 92% | 56% |

Molecules with a higher pKi (hMeprin α), results first:

| pKi (hMeprin α) | pIC50 (hMeprin α) | pKi (hMeprin β) | pIC50 (hMeprin β) | remaining activity at 10 µM (hMMP 9) | remaining activity at 200 µM (hMMP 9) | remaining activity at 10 µM (hADAM 10) | remaining activity at 200 µM (hADAM 10) | remaining activity at 10 µM (hADAM 17) | remaining activity at 200 µM (hADAM 17) | Compound |
| --- | --- | --- | --- | --- | --- | --- | --- | --- | --- | --- |
| 9.85 | 9.68 | 9.38 | 9.36 | 86% | 39% | 104% | 61% | 68% | 5% | O=C(Cc1c(-c2cc(F)c(O)c(Cl)c2)n[nH]c1-c1ccccc1)NO [Example 54, 2-[3-(3-Chloro-5-fluoro-4-hydroxy-phenyl)-5-phenyl-1H-pyrazol-4-yl]ethanehydroxamic acid] |
| 9.48 | 9.41 | 7.96 | 8.00 | 83% | 36% | 92% | 66% | 84% | 25% | O=C(Cc1c(-c2ccccc2)nn(Cc2cccc(C(=O)O)c2)c1-c1ccccc1)NO [Example 41, 3-[[4-[2-(Hydroxyamino)-2-oxo-ethyl]-3,5-diphenyl-1H-pyrazol-1-yl]methyl]benzoic acid] |
